# Several values for one entry are separate records, joined by “and”; a condition that tells them apart may be missing. Identical values can stand only once.
# Tested on: human erythrocytes
# Assay: Untargeted metabolomics and 13C-glucose tracing of enolase inhibitor treated erythrocytes
# Assay type: cell-based
# Details: 0.5h
# Description: Freshly collected erythrocytes were washed, resuspended to 10% hematocrit in buffer [25mM HEPES (pH 7.4), 120mM NaCl, 5.4mM KCl, 1.8mM CaCl2, and 1mM NaH2PO4], incubated for 1 hour at 37°C, then centrifuged at 2000xg for 5 minutes at 4°C, resuspended in fresh wash buffer to 30-40% hematocrit, and split into 210µL aliquots of packed erythrocytes. […] All samples were incubated at 37°C shaking at 500 RPM. Triplicate samples of supernatants and packed erythrocytes were collected at 0, 0.5, 1, and 6-hour intervals and snap-frozen in liquid N2.
# RBC and media samples were extracted at 1:10 and 1:20 dilutions, respectively, in 5:3:2 MeOH : MeCN:H2O v/v/v, and supernatants analyzed on a Thermo Vanquish UHPLC coupled to a Thermo Q Exactive mass spectrometer, as extensively described ([Nemkov et al., 2015]; [Nemkov et al., 2017]). The extraction buffer was supplemented with 40uM 3-^13C lactate to allow absolute quantification of lactate isotopologues, including lactate generated via glycolysis ([1,2,3-^13C3] enriched) vs. the pentose phosphate pathway ([2,3-^13C2] enriched), as described ([Reisz et al., 2016]). Metabolite assignments, peak area integration and isotopologues distributions were determined using Maven (Princeton University) ([Nemkov et al., 2015]; [Nemkov et al., 2017]).
# Data were auto-scaled and normalized to zero-hour time points. Metabolites were removed from the dataset if greater than 50% of the samples contained missing values or the relative standard deviation among replicates exceeded 25%. Additionally, data was filtered using the interquartile range to reduce near-constant values from the experiment by 5%.
# A principal component analysis of preprocessed data was plotted with the 95% confidence interval minimum volume enclosing ellipsoid for each respective group (MetaboAnalyst, cluster, plotly). A two-way repeated measures analysis of variance (ANOVA) was performed with multiple comparisons corrected for using a false discovery rate p-value cutoff of 0.05. Metabolite-Pathway analysis was performed using the R package of MetaboAnalyst, as previously described ([Xia and Wishart, 2010]). Metabolite-Protein nodal analysis was performed using omicsnet.ca and as previously described ([Zhou and Xia, 2018]).
# [1] = treated erythrocytes, one value per replicate sample, polarity +
# [2] = treated erythrocytes, one value per replicate sample, polarity -
# [3] = treated erythrocytes, replicate samples
compound,measurement,setting,value
CC(C)(C)C(=O)OCOP(=O)(OCOC(=O)C(C)(C)C)C1CCCN(O)C1=O (stereo not shown) [POMHEX],AMP level (metabolomics signal),replicate samples,2.04E+06 and 4.36E+06 and 1.74E+06
same,ATP level (metabolomics signal),replicate samples,4.24E+03 and 2.55E+03 and 4.82E+03
same,Adenine level (metabolomics signal),replicate samples,1.54E+05 and 1.61E+05 and 1.63E+05
same,Cytosine level (metabolomics signal),replicate samples,6.37E+05 and 5.53E+05 and 6.73E+05
same,L-alanine level (metabolomics signal),replicate samples,1.10E+07 and 9.02E+06 and 1.16E+07
same,L-arginine level (metabolomics signal),replicate samples,8.79E+06 and 1.37E+07 and 1.09E+07
same,L-asparagine level (metabolomics signal),replicate samples,5.66E+06 and 6.04E+06 and 5.52E+06
same,L-aspartate level (metabolomics signal),replicate samples,5.07E+07 and 4.67E+07 and 4.55E+07
same,L-cysteine level (metabolomics signal),replicate samples,3.90E+05 and 9.84E+05 and 3.84E+05
same,L-glutamate level (metabolomics signal),replicate samples,3.66E+07 and 3.55E+07 (2×)
same,L-glutamine level (metabolomics signal),replicate samples,6.00E+07 and 6.77E+07 and 7.03E+07
same,L-histidine level (metabolomics signal),replicate samples,1.31E+06 and 1.35E+06 and 1.30E+06
same,L-isoleucine level (metabolomics signal),replicate samples,1.70E+07 and 1.55E+07 and 1.61E+07
same,L-leucine level (metabolomics signal),replicate samples,2.16E+08 and 2.81E+08 and 2.05E+08
same,L-lysine level (metabolomics signal),replicate samples,2.55E+06 and 2.50E+06 and 1.99E+06
same,L-methionine level (metabolomics signal),replicate samples,1.95E+07 and 2.57E+07 and 1.85E+07
same,L-phenylalanine level (metabolomics signal),replicate samples,1.37E+07 and 1.80E+07 and 1.25E+07
same,L-proline level (metabolomics signal),replicate samples,4.87E+07 and 5.22E+07 and 3.89E+07
same,L-serine level (metabolomics signal),replicate samples,4.56E+06 and 4.84E+06 and 4.45E+06
same,L-threonine level (metabolomics signal),replicate samples,6.27E+06 and 7.92E+06 and 7.08E+06
same,L-tryptophan level (metabolomics signal),replicate samples,5.02E+06 and 4.78E+06 and 4.62E+06
same,L-tyrosine level (metabolomics signal),replicate samples,2.37E+07 (2×) and 3.01E+07
same,L-valine level (metabolomics signal),replicate samples,1.71E+08 and 1.67E+08 and 1.60E+08
same,dCMP level (metabolomics signal),replicate samples,2.34E+04 and 2.37E+04 and 1.78E+04
same,dTMP level (metabolomics signal),replicate samples,9.79E+05 and 1.15E+06 and 1.17E+06
same,glycine level (metabolomics signal),replicate samples,2.21E+06 and 2.32E+06 and 2.35E+06
same,N-Acyl-D-aspartate (C06380) metabolite signal,[1],2.31E+05 and 2.56E+05 and 2.58E+05
same,Poly-gamma-D-glutamate (C05723) metabolite signal,[1],3.95E+07 and 4.61E+07 and 4.86E+07
same,D-Ribitol 5-phosphate (C01068) metabolite signal,[2],2.02E+04 and 2.67E+04 and 2.32E+04
same,"D-glucono-1,5-lactone (C00198) metabolite signal",[2],5.42E+05 and 4.39E+05 and 4.31E+05
same,L-Noradrenaline (C00547) metabolite signal,[2],7.51E+04 and 1.32E+05 and 6.59E+04
same,Oxalosuccinate (C05379) metabolite signal,[2],1.39E+05 and 1.40E+05 and 1.27E+05
same,Pyridoxamine (C00534) metabolite signal,[2],3.25E+04 and 2.97E+04 and 2.95E+04
same,Thioredoxin disulfide (C00343) metabolite signal,[2],5.85E+04 and 1.53E+04 and 4.46E+04
same,1-4-beta-D-Xylan (metabolite signal),[3],2.40E+05 and 2.75E+05 and 1.64E+05
same,2-Hydroxyglutarate/Citramalate (C02630) metabolite signal,[3],1.06E+05 and 6.70E+04 and 9.81E+04
same,5-6-Dihydrothymine (C00906) metabolite signal,[3],3.14E+05 and 2.95E+05 and 2.82E+05
same,5-10-Methenyltetrahydrofolate (metabolite signal),[3],3.07E+05 and 3.19E+05 and 3.47E+05
same,5-Hydroxyisourate (C11821) metabolite signal,[3],6.72E+06 and 4.60E+06 and 5.11E+06
same,5-L-Glutamyl-taurine (metabolite signal),[3],1.65E+05 and 1.74E+05 and 8.68E+04
same,5-Oxoproline (metabolite signal),[3],1.01E+06 and 8.27E+05 and 8.80E+05
same,(S)(+)-Allantoin (C02350) metabolite signal,[3],2.15E+04 and 0.00E+00 and 2.93E+04
same,Allantoate (C00499) metabolite signal,[3],2.52E+05 and 3.85E+05 and 2.39E+05
same,Ascorbate (metabolite signal),[3],9.38E+04 and 1.10E+05 and 1.13E+05
same,CMP-N-acetylneuraminate (metabolite signal),[3],2.14E+04 and 1.46E+04 and 2.19E+04
same,Carnosine (metabolite signal),[3],2.66E+05 and 1.54E+05 and 2.52E+05
same,Citrate (C00158) metabolite signal,[3],4.21E+04 and 3.38E+04 and 3.43E+04
same,Creatine (metabolite signal),[3],3.82E+08 and 3.13E+08 and 3.15E+08
same,Creatinine (metabolite signal),[3],3.99E+06 and 3.09E+06 and 3.73E+06
same,Cys-Gly (metabolite signal),[3],2.17E+06 and 2.13E+06 and 1.97E+06
same,D-Glucosamine (metabolite signal),[3],2.57E+05 and 3.05E+05 and 2.16E+05
same,D-Glucose (C00031) metabolite signal,[3],6.04E+06 and 6.91E+06 and 5.92E+06
same,D-Ribose (C00121) metabolite signal,[3],1.90E+05 and 1.42E+05 and 1.71E+05
same,Dehydroascorbate (metabolite signal),[3],1.55E+04 and 2.20E+04 and 1.72E+04
same,Dihydrofolate (metabolite signal),[3],1.72E+06 and 1.97E+06 and 2.05E+06
same,Dimethylglycine (metabolite signal),[3],1.06E+06 and 1.08E+06 and 9.75E+05
same,Diphosphate (C00013) metabolite signal,[3],3.53E+03 and 8.59E+03 and 2.40E+03
same,Fumarate (C00122) metabolite signal,[3],1.24E+05 and 9.52E+04 and 1.10E+05
same,Glutathione (C00051) metabolite signal,[3],1.46E+08 and 1.38E+08 and 1.22E+08
same,Glutathione disulfide (metabolite signal),[3],2.34E+05 and 1.46E+05 and 2.55E+05
same,Hypoxanthine (C00262) metabolite signal,[3],4.07E+04 and 4.68E+04 and 4.37E+04
same,IMP (C00130) metabolite signal,[3],0.00E+00 and 1.71E+05 and 8.01E+04
same,Inosine (C00294) metabolite signal,[3],1.09E+05 and 6.95E+04 and 7.35E+04
same,L-Citrulline (metabolite signal),[3],4.16E+06 and 4.12E+06 and 4.14E+06
same,L-Homoserine (metabolite signal),[3],1.91E+05 and 2.39E+05 and 1.86E+05
same,Lactate (C01432) metabolite signal,[3],8.53E+06 and 7.59E+06 and 8.32E+06
same,Malate (C00149) metabolite signal,[3],2.09E+05 and 1.30E+05 and 1.62E+05
same,Mannitol (C00392) metabolite signal,[3],1.34E+05 and 1.15E+05 and 1.42E+05
same,N-Acetylneuraminate (metabolite signal),[3],3.02E+04 and 1.89E+04 and 1.91E+04
same,N-Glycoloyl-neuraminate (metabolite signal),[3],1.66E+05 and 1.75E+05 and 1.62E+05
same,NAD+ (C00003) metabolite signal,[3],5.24E+05 and 2.47E+05 and 4.46E+05
same,Nicotinamide (C00153) metabolite signal,[3],3.74E+07 and 4.23E+07 and 3.90E+07
same,Ornithine (metabolite signal),[3],2.17E+06 and 2.00E+06 and 1.65E+06
same,Oxaloacetate (C00036) metabolite signal,[3],3.93E+04 and 5.60E+04 and 5.05E+04
same,Phosphoserine (metabolite signal),[3],5.17E+04 and 3.63E+04 and 3.54E+04
same,Putrescine (metabolite signal),[3],7.82E+04 and 7.87E+04 and 8.82E+04
same,Pyridoxal (C00250) metabolite signal,[3],7.34E+04 and 7.61E+04 and 7.64E+04
same,Pyruvate (C00022) metabolite signal,[3],5.86E+05 and 6.64E+05 and 6.39E+05
same,S-Glutathionyl-L-cysteine (metabolite signal),[3],1.61E+05 and 1.05E+05 and 1.77E+05
same,Sedoheptulose 1-phosphate (C06222) metabolite signal,[3],1.57E+04 and 1.33E+04 and 1.23E+04
same,Spermidine (metabolite signal),[3],1.10E+07 and 8.21E+06 and 9.51E+06
same,Spermine (metabolite signal),[3],1.10E+07 and 9.13E+06 and 8.60E+06
same,Succinate (C00042) metabolite signal,[3],7.14E+04 and 9.44E+04 and 6.66E+04
same,Thymidine (C00214) metabolite signal,[3],1.01E+04 and 1.94E+04 and 1.37E+04
same,UDP (C00015) metabolite signal,[3],1.69E+05 and 2.66E+05 and 2.03E+05
same,UDP-N-acetyl-D-glucosamine (metabolite signal),[3],1.85E+04 (2×) and 1.14E+04
same,UDP-glucose (C00029) metabolite signal,[3],3.86E+04 and 2.14E+04 and 2.96E+04
same,Urate (C00366) metabolite signal,[3],3.40E+04 and 3.79E+04 and 3.24E+04
same,Xanthine (C00385) metabolite signal,[3],3.40E+05 and 3.32E+05 and 3.09E+05
same,alpha-D-Glucosamine 1-phosphate (metabolite signal),[3],2.32E+06 and 1.61E+06 and 1.74E+06
same,alpha-D-Ribose 1-phosphate (C00620) metabolite signal,[3],1.49E+05 and 1.17E+05 and 8.56E+04
same,gamma-Glutamyl-gamma-aminobutyrate (metabolite signal),[3],9.84E+04 and 1.13E+05 and 1.05E+05
same,gamma-L-Glutamyl-D-alanine (metabolite signal),[3],3.61E+04 and 2.95E+04 and 2.86E+04
same,gamma-L-Glutamyl-L-cysteine (metabolite signal),[3],2.26E+04 and 4.82E+04 and 4.78E+04
